Measured values published in PubChem BioAssay (NCI).
Values joined by “and” are separate entries in the source; they are usually repeats but may differ in a detail not shown here. Equal entries are not always repeated.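 The compound was tested at five concentrations on cells cultured in 96-well plates, with a 48-hour exposure period. GI50 = concentration required for 50% inhibition of growth. TGI: concentration producing complete growth inhibition.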

Key:
Test in all cases: NCI tumour cell line growth inhibition, 48 h
SNB-19 CNS = tested on: SNB-19 CNS
SW-620 colon = tested on: SW-620 colon
HCT-116 colon = tested on: HCT-116 colon
TK-10 renal = tested on: TK-10 renal
IGROV1 ovarian = tested on: IGROV1 ovarian
HCT-15 colon = tested on: HCT-15 colon
UO-31 renal = tested on: UO-31 renal
UACC-62 melanoma = tested on: UACC-62 melanoma
SN12C renal = tested on: SN12C renal
SK-OV-3 ovarian = tested on: SK-OV-3 ovarian

Structure (SMILES) | GI50 (SNB-19 CNS) | TGI (SNB-19 CNS) [µM] | GI50 (SW-620 colon) | TGI (SW-620 colon) [µM] | GI50 (HCT-116 colon) | TGI (HCT-116 colon) [µM] | GI50 (TK-10 renal) | TGI (TK-10 renal) [µM] | GI50 (IGROV1 ovarian) [µM] | TGI (IGROV1 ovarian) | GI50 (HCT-15 colon) | TGI (HCT-15 colon) [µM] | GI50 (UO-31 renal) | TGI (UO-31 renal) | GI50 (UACC-62 melanoma) | TGI (UACC-62 melanoma) | GI50 (SN12C renal) | TGI (SN12C renal) [µM] | GI50 (SK-OV-3 ovarian) | TGI (SK-OV-3 ovarian)
CC(=O)O[C@H]1[C@@H]2OC(=O)C(CSc3ccccc3)[C@@H]2C[C@H]2O[C@]2(C)CC/C=C(\C)CCC[C@@H]1C (stereo partly specified) | 11.9 µM | 62.8 | 2.22 µM | 4.92 | 1.46 µM | 2.91 | 1.65 µM | 3.74 | 3.05 | 9.38 µM | 1.95 µM | 6.52 | 1.96 µM | 5.26 µM | 4.65 µM | 14.8 µM | 3.45 µM | 14.8 | 13.6 µM | 57 µM
CCCCCCCCCNC(=O)/C=C/c1ccc(O)c(O)c1 | 21.4 µM | 50.3 | 3.06 µM | 30.4 | 4.94 µM | 18.4 | 11.1 µM | 39.7 | 1.1 | 5.49 µM | 5.25 µM | 19.9 | 1.42 µM | 14.9 µM | 15.3 µM | 29 µM | 10.8 µM | 23.1 | 19.4 µM | 49.5 µM
N#Cc1cc(S(=O)(=O)Nc2nnc(-c3ccccc3)c(-c3ccccc3)n2)c(SCc2ccccc2)cc1Cl | 35.1 µM | > 100 | 35.5 µM | > 100 | 18.5 µM | 36.2 | 22.9 µM | 46.2 | 29.7 | 83.5 µM | 17.4 µM | 33.3 | 26.8 µM | 71.3 µM | 20.5 µM | 48.7 µM | 20.3 µM | 47 | 23.4 µM | 57.4 µM
CCc1ccc(C(=Nc2ccc(N(C)C(=O)CN3CCN(C)CC3)cc2)c2c(O)[nH]c3ccc(C(=O)OC)cc23)cc1 | 0.775 µM | 2.09 | 0.259 µM | 1.29 | 0.0995 µM | 1.12 | 0.233 µM | 2.11 | 0.0714 | 1.11 µM | 0.277 µM | 1.25 | 0.287 µM | 1.36 µM | 1.37 µM | 3.2 µM | 0.223 µM | 1.61 | 0.245 µM | 1.23 µM
COC(=O)C12OCC34C(CC5C(C)C6=CC(=O)OC6=CC5(C)C3C(O)C1O)OC(=O)C(O)C24 (stereo unspecified) | 0.0525 µM |  | 0.282 µM | 9.4 | 0.224 µM | 6.31 | 0.534 µM | 58.2 | 0.17 | 0.436 µM and 1.41 µM | 0.458 µM | 12.9 |  | 61.8 µM | 0.262 µM | 0.779 µM and 1.91 µM | 0.416 µM | 34.1 | 0.328 µM | 24.6 µM
[N-]=[N+]=NCCCn1c2c(c3ccc([N+](=O)[O-])cc3c1=O)C(=O)c1cc(F)ccc1-2 | 1.05 µM | > 100 | 1.76 µM | > 100 | 0.388 µM | 3.3 | 16.7 µM | > 100 | 2.3 | > 30.2 µM | 5.86 µM | > 100 | 0.807 µM | 12.6 µM | 0.523 µM | 3.55 µM | 0.703 µM |  | 2.82 µM | 19.3 µM
Cc1ccc(NS(=O)(=O)c2cccc(C#N)c2)c2[nH]cc(C#N)c12 | 16.1 µM and 24.6 µM | > 100 | 0.76 µM and 1.7 µM | > 100 | 0.146 µM and 0.157 µM | > 100 | 24.6 µM and 22.4 µM | > 92.5 |  | > 100 µM | 6.14 µM and 14.1 µM | > 100 | 14.7 µM and 9.17 µM | 63.8 µM and 56.3 µM | 7.07 µM and 15.4 µM | 32.2 µM and 53.2 µM | 25.5 µM and 27.3 µM | > 94.7 | 0.829 µM and 0.361 µM | 63.4 µM and 74.1 µM
C/C(=C\c1cc(C(F)(F)F)n(-c2ccc(N)cc2)n1)[C@@H]1C[C@@H]2O[C@]2(C)CCC[C@H](C)[C@H](O)[C@@H](C)C(=O)C(C)(C)[C@@H](O)CC(=O)O1 | 0.0711 µM | > 11.1 | 0.00554 µM | > 11.1 | 0.00775 µM | > 5.49 | 0.0578 µM | 7.95 | 0.068 | > 11.1 µM | 0.0256 µM | > 11.1 | 0.0791 µM | > 11.1 µM | 0.0245 µM | > 6.85 µM | 0.396 µM | > 11.1 | 0.0575 µM | > 11.1 µM
O=C(N/N=C1\C(=O)N(c2nccs2)C(=O)C(=O)C1c1nc2ccccc2s1)c1ccccc1O (stereo unspecified) |  | > 100 |  | > 100 |  | > 100 |  | > 100 |  | > 100 µM |  | > 100 |  | 35.4 µM |  | > 100 µM |  | > 100 |  | > 100 µM
C/C(O)=C(\C#N)C(=O)Nc1ccc(C(F)(F)F)cc1 | 24.5 µM | > 100 | 36.4 µM | > 100 | 7.5 µM | > 100 | > 100 µM | > 100 | 28.4 | > 100 µM | 5.96 µM | > 100 | 18.1 µM | > 100 µM | 15.6 µM | > 100 µM | 29.1 µM | > 100 | 94.5 µM | > 100 µM
